According to PubChem BioAssay (NCI):
Values joined by “and” are separate entries in the source; they are usually repeats but may differ in a detail not shown here. Identical values can stand only once.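 These data come from cells grown in 96-well plates and exposed to compound for 48 hours at five concentrations. GI50: concentration for 50% inhibition of growth. TGI denotes the concentration required for complete inhibition of growth.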

Legend:
Assay in all cases: NCI anticancer screen, dose series, 48 h
SNB-75 CNS = tested on: SNB-75 CNS
HOP-62 NSCLC = tested on: HOP-62 NSCLC
SK-OV-3 ovarian = tested on: SK-OV-3 ovarian
NCI-H226 lung = tested on: NCI-H226 lung
SF-539 CNS = tested on: SF-539 CNS
OVCAR-4 ovarian = tested on: OVCAR-4 ovarian
EKVX NSCLC = tested on: EKVX NSCLC
MOLT-4 leukemia = tested on: MOLT-4 leukemia
HCT-116 colon = tested on: HCT-116 colon
OVCAR-5 ovarian = tested on: OVCAR-5 ovarian

SMILES	TGI (SNB-75 CNS)	TGI (HOP-62 NSCLC)	TGI (SK-OV-3 ovarian)	TGI (NCI-H226 lung)	TGI (SF-539 CNS)	TGI (OVCAR-4 ovarian)	TGI (EKVX NSCLC)	TGI (MOLT-4 leukemia)	TGI (HCT-116 colon)	GI50 (SNB-75 CNS) [µM]	GI50 (HOP-62 NSCLC) [µM]	GI50 (SK-OV-3 ovarian) [µM]	GI50 (NCI-H226 lung) [µM]	GI50 (SF-539 CNS) [µM]	GI50 (OVCAR-4 ovarian) [µM]	GI50 (EKVX NSCLC) [µM]	GI50 (MOLT-4 leukemia) [µM]	GI50 (HCT-116 colon) [µM]	GI50 (OVCAR-5 ovarian) [µM]	TGI (OVCAR-5 ovarian)
O=S(=O)(c1ccccc1)N1CCC1c1ccccc1 (stereo not given)	> 100 µM	> 100 µM	> 100 µM	> 100 µM	> 100 µM	> 100 µM	> 100 µM	> 100 µM	> 100 µM	–	–	–	–	–	–	–	–	–	–	–
CCCN1CCC(Oc2cc(Nc3nc(Nc4cccc(F)c4C(N)=O)c4cc[nH]c4n3)c(OC)cc2Cl)CC1	7.79 µM	4.36 µM	14 µM	10.7 µM	8.24 µM	8.05 µM	7.41 µM	7.97 µM	5.5 µM	3.22	1.31	4.87	3.64	4.13	3.67	3.1	3.48	2.16	3.44	7.27 µM
Clc1cccc(-c2cc(-c3ccc4c(c3)OCCO4)[nH]n2)c1	34.8 µM	41.6 µM	46.7 µM	92.1 µM	36.1 µM	49.5 µM	45.6 µM	74.6 µM	40.3 µM	2.24	2.39	5.42	29.5	6.31	13.8	11.5	3.15	5.96	10.4	47.7 µM
Nc1nc(N)c2cc(S(=O)(=O)c3cccc(C(F)(F)F)c3)ccc2n1	39.8 µM	34.2 µM	> 100 µM	> 100 µM	> 100 µM	> 100 µM	> 100 µM	> 100 µM	> 100 µM	12.9	6.43	14.8	21.5	6.63	5.71	3.32	4.32	1.47	6.46	> 100 µM
CCOc1cc(/C=C/C(=O)CC(=O)/C=C/c2ccc(OC(=O)CNc3nc4ccc(OC)cc4s3)c(OCC)c2)ccc1OC(=O)CNc1nc2ccc(OC)cc2s1	34.3 µM	> 100 µM	53 µM	34.1 µM	5.14 µM	68.5 µM	11.7 µM	11.1 µM	15.1 µM	6.77	23	9.89	12.9	2.12	13.6	3.48	3.14	3.02	15.3	34 µM
O=c1[nH]c(=O)n(Cc2ccc(C34CC5CC(CC(C5)C3)C4)c(O)c2)cc1F	32 µM	31.4 µM	55.7 µM	32.6 µM	30.1 µM	30.2 µM	35.7 µM	32.4 µM	28.5 µM	12.8	14.6	21	16.7	14.7	13.8	16.4	12.4	13.3	16.1	33.4 µM
CCOP(=O)(OCC)C(C(=O)OC)C(=O)C(=O)Nc1cccc([N+](=O)[O-])c1 (stereo not given)	> 100 µM	> 100 µM	> 100 µM	> 100 µM	> 100 µM	> 100 µM	> 100 µM	> 100 µM	> 100 µM	–	–	–	–	–	–	–	–	–	–	> 100 µM
CN1CCN(CCCOC(=O)c2c3c(n4ccccc24)C(=O)c2ncccc2C3=O)CC1	0.105 µM	0.0393 µM	0.0278 µM	1.08 µM	0.103 µM	3.78 µM	12.6 µM	23.4 µM	2.91 µM	< 0.0142	< 0.01	< 0.01	0.0178	< 0.0154	0.537	0.0456	0.0604	< 0.01	0.357	3.65 µM
CN(c1ccccc1)c1nc(=[N+](C)C)ss1	> 100 µM	> 100 µM	> 100 µM	> 100 µM	> 100 µM	> 100 µM	> 100 µM	–	> 100 µM	–	–	–	–	–	–	–	–	–	–	> 100 µM
CN(C)CCN1C(=O)c2cccc3cc(N)cc(c23)C1=O	17 µM and 16.7 µM	18.8 µM and 11.4 µM	38.4 µM and 17.4 µM	5.34 µM and 8.51 µM	18.2 µM and 14.7 µM	33.7 µM and 18.3 µM	39.7 µM and 15.3 µM	> 100 µM and 13.5 µM	> 60.2 µM and 9.87 µM	3.81	3.08	–	1.51	–	–	4.22	1.88	3.21	3.98	48.7 µM and 13.8 µM
O=C(Nc1ccc(Nc2ccc3c(c2)C(=O)c2ccccc2C3=O)c2c1C(=O)c1ccccc1C2=O)c1ccccc1	58.1 µM	> 100 µM	> 100 µM	> 100 µM	> 100 µM	> 100 µM	> 100 µM	> 69.3 µM	> 100 µM	–	–	–	–	–	–	–	–	–	–	> 100 µM
C=C(C)[C@@H]1CC[C@]2(C(=O)OC)CC[C@]3(C)[C@H](CC[C@@H]4[C@@](C)(CCc5nn[nH]n5)[C@H](C(=C)C)CC[C@]43C)[C@@H]12	34.1 µM	41.1 µM	82.8 µM	47.7 µM	30.7 µM	48.1 µM	61 µM	40.8 µM	> 100 µM	15.9	18.7	25.6	15.3	16.5	14.7	19.2	11.7	26.9	19.4	35.9 µM
CCn1c(-c2nonc2N)nc2cnc(Oc3cccc(NC(=O)c4ccc(OCCN5CCOCC5)cc4)c3)cc21	7.65 µM	> 25 µM	> 25 µM	> 25 µM	> 25 µM	> 25 µM	> 25 µM	24.4 µM	> 25 µM	0.0594	1.5	7.33	1.24	0.929	4.48	0.752	4.29	1.81	5.22	> 25 µM
CN1CCC2(CC1)C(=O)Nc1cc(NC(=O)c3ccc4c(c3)C[C@@H]3C(C)(C)[C@H](O)[C@H](F)C[C@@]3(C)O4)ccc12	4.8 µM	23 µM	27.3 µM	49.3 µM	15.9 µM	> 100 µM	> 100 µM	1.5 µM	17.2 µM	0.0373	1.04	1.71	14	0.0565	25.9	29.8	0.0342	1.35	12.3	> 100 µM
C[C@]12CC[C@H]3[C@@H](CCC4=CC(=O)CC[C@@]43C)[C@]1(O)CC[C@]2(O)C(=O)CO	> 100 µM	> 100 µM	> 100 µM	> 100 µM	> 100 µM	> 100 µM	> 100 µM	> 100 µM	> 100 µM	–	–	–	–	–	–	–	–	–	–	> 100 µM
O=c1c(-c2cccc3ccccc23)c(-c2cccc3ccccc23)c1=O	4.07 µM	49.1 µM	26.1 µM	6.51 µM	4.75 µM	–	> 39.4 µM	> 45.2 µM	37.6 µM	–	–	–	–	–	–	–	–	–	–	> 84.9 µM
CCN(CC)CCN1C(=O)C2C3C(C)=CC(OC(C)=O)(CC3C)C2C1=O (stereo not given)	> 100 µM	> 100 µM	> 100 µM	> 100 µM	> 100 µM	> 100 µM	> 100 µM	> 100 µM	> 100 µM	> 100	> 100	> 100	> 100	> 100	> 100	> 100	> 100	> 100	> 100	> 100 µM
c1ccc2[nH]c(-c3ccc(Nc4nc(N5CCCC5)nc5[nH]ncc45)cc3)nc2c1	2.76 µM	3.07 µM	4.87 µM	4.01 µM	2.24 µM	2.81 µM	3.12 µM	–	0.473 µM	1.28	1.46	2.55	1.8	1.05	1.06	1.45	–	0.203	1.23	2.87 µM
Clc1ccc(NCNC2Nc3ccccc3N2)cc1Cl	> 100 µM	> 100 µM	> 100 µM	> 100 µM	> 100 µM	–	> 100 µM	> 100 µM	> 100 µM	–	–	–	–	–	–	–	–	–	–	> 100 µM
COc1cc(-c2csc(NC(=O)Nc3ccc(Cl)cc3)n2)cc(OC)c1OC	8.39 µM	7.76 µM	8.91 µM	10.7 µM	13.7 µM	> 49.6 µM	> 64.5 µM	–	8.12 µM	2.12	2.65	3	3.22	2.98	2.89	2.77	–	2.83	3.56	21 µM
O=c1c2ccccc2c(=O)n2n1-c1cccc(c1)CSSCc1cccc-2c1	–	> 100 µM	> 100 µM	> 100 µM	> 100 µM	> 100 µM	> 100 µM	> 100 µM	> 100 µM	–	> 100	–	> 100	> 100	> 100	> 100	> 100	> 100	> 100	> 100 µM
O=C1C2C3SC(c4cc5ccccc5cc43)C2C(=O)N1c1ccccc1 (stereo not given)	45.4 µM	–	> 100 µM	> 100 µM	> 100 µM	> 100 µM	> 100 µM	> 100 µM	> 100 µM	–	–	–	–	–	–	–	–	–	–	> 100 µM
COc1ccc(-c2cc(=O)c3c(C)ccnc3[nH]2)cc1	–	92.4 µM	> 100 µM	> 100 µM	72.2 µM	> 100 µM	> 100 µM	50 µM	39.4 µM	–	–	–	–	–	–	–	–	6.43	–	68.4 µM
N#Cc1cnc2ccc(NCc3cnc[nH]3)cc2c1Nc1ccc(F)c(Cl)c1	95.8 µM	> 100 µM	> 100 µM	> 100 µM	> 100 µM	> 100 µM	–	> 100 µM	> 100 µM	11.1	10.5	4.2	> 100	14.7	2.44	–	> 100	6.85	18.2	> 100 µM
CCCCCOC(=O)c1c(C)[nH]c(/C=C2\N=C(c3ccc[nH]3)C=C2OC)c1C	0.619 µM	0.937 µM	2.38 µM	2.13 µM	0.725 µM	2.39 µM	–	1.43 µM	0.349 µM	0.0429	0.0436	0.209	0.222	0.0306	0.0559	–	0.0265	0.0193	0.0191	1.21 µM
CC(NC(=O)c1ccc(Cl)c(Cl)c1)c1ccc(-c2ccccc2)cc1 (stereo not given)	39.3 µM	54.5 µM	90.4 µM	78.7 µM	42.9 µM	37.7 µM	> 100 µM	–	> 100 µM	–	–	–	–	–	–	–	–	–	–	> 100 µM
CCN(CC)CC(C(=O)Nc1c(C)cccc1C)/C(C)=N\NC(=S)NN (stereo not given)	> 100 µM	> 100 µM	> 100 µM	> 100 µM	> 100 µM	–	> 100 µM	> 100 µM	> 100 µM	–	–	–	–	–	–	–	–	–	–	> 100 µM
NCCNCCNCc1c2ccccc2c(CNCCNCCN)c2ccccc12	–	> 100 µM	> 100 µM	> 100 µM	> 100 µM	> 100 µM	> 100 µM	> 100 µM	> 100 µM	–	–	–	–	–	–	–	–	–	–	> 100 µM
CC[O-].CC[O-].[O-]c1ccccc1C=NC12CC3CC(CC(C3)C1)C2.[O-]c1ccccc1C=NC12CC3CC(CC(C3)C1)C2.[Ti+4]	–	> 100 µM	> 100 µM	> 100 µM	> 100 µM	> 100 µM	> 100 µM	> 100 µM	> 100 µM	–	> 100	> 100	> 100	> 100	> 100	> 100	> 100	39.6	> 100	> 100 µM
CS(=O)(=O)N(CCC#N)c1ccc(/C=C2\N=C(c3ccccc3Cl)OC2=O)cc1	> 100 µM	> 100 µM	> 100 µM	> 100 µM	> 100 µM	–	> 100 µM	> 100 µM	> 100 µM	–	–	–	–	–	–	–	–	–	–	> 100 µM
